Results taken from the supplement of paper PMC8497498.

Legend:
Conditions in all cases: assay mode: Radical Cure, 8-day (treatment from day 5 post-infection)
[1] = system: Plasmodium vivax liver stage (primary human hepatocyte culture)
Procedure: (§1)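 Dose-response of P. vivax liver stages in primary human hepatocytes, with 8 points (10 uM-[…], v1) or 12 points in duplicate (50 uM-280 pM, v2). Read-out is high-content imaging of schizont net growth area, hypnozoite quantity and hepatic nuclei. EC50 and CC20 (20% nuclei loss) were fitted in CDD Vault from the highest-quality independent experiment; toxic-dose bell-shaped points were masked. '>' marks the highest concentration with less than 50% activity, and ND means a non-sigmoidal curve.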

[2] = system: primary human hepatocytes; assay: CC20 hepatic nuclei (20% reduction); higher = less toxic
Procedure: as §1

[3] = system: Plasmodium vivax liver stage (primary human hepatocyte culture); assay: maximum inhibition of schizont net growth area; higher = more active
Procedure: as §1

[4] = P. vivax isolate: Pv395, hepatocyte lot: UBV
[5] = P. vivax isolate: Pv657, hepatocyte lot: BGW
[6] = P. vivax isolate: Pv728, hepatocyte lot: BGW
[7] = P. vivax isolate: Pv557, hepatocyte lot: UBV
[8] = P. vivax isolate: Pv668, hepatocyte lot: BGW
[9] = P. vivax isolate: Pv590, hepatocyte lot: UBV
[10] = P. vivax isolate: Pv458, hepatocyte lot: UBV
[11] = P. vivax isolate: Pv756, hepatocyte lot: BGW

c1ccc(-c2csc(Nc3nc4cc5c(cc4s3)OCO5)n2)nc1
EC50 hypnozoite quantity [1, 4]: > 10 µM | EC50 schizont net growth area [1, 4]: > 3.33 µM | CC20 hepatic nuclei [2, 4]: > 10 µM | maximum inhibition [3, 4]: 72.6%

CC(C)(C)n1nc(-c2ccccc2)c2c(N)ncnc21
EC50 hypnozoite quantity [1, 5]: > 50 µM | EC50 schizont net growth area [1, 5]: > 16.7 µM | CC20 hepatic nuclei [2, 5]: > 50 µM | maximum inhibition [3, 5]: 76.7%

CC1(CN2CCC(n3c(O)nc4ccccc43)CC2)OCc2ccccc2-n2cccc21 (stereo not given)
EC50 hypnozoite quantity [1, 6]: > 10 µM | EC50 schizont net growth area [1, 6]: 0.395 µM | CC20 hepatic nuclei [2, 6]: > 10 µM | maximum inhibition [3, 6]: 99.2%

Cc1ccnc(Nc2nc(-c3ccccn3)cs2)c1
EC50 hypnozoite quantity [1, 7]: > 50 µM | EC50 schizont net growth area [1, 7]: 1.79 µM | CC20 hepatic nuclei [2, 7]: > 5.56 µM | maximum inhibition [3, 7]: 84.1%

Cc1ccc(Nc2nc(-c3ccccn3)cs2)nc1
EC50 hypnozoite quantity [1, 8]: 19.9 µM | CC20 hepatic nuclei [2, 8]: > 50 µM | maximum inhibition [3, 8]: 90.9%

CCN(CC)CCCNc1nc(-c2ccc(Cl)cc2)nc2ccccc12
EC50 hypnozoite quantity [1, 9]: > 50 µM | EC50 schizont net growth area [1, 9]: > 5.56 µM | CC20 hepatic nuclei [2, 9]: 40.2 µM | maximum inhibition [3, 9]: 99.6%

CCOc1ccc(CCC2CCN(C(C)c3nc(N)nc(N(C)C)n3)CC2)cc1 (stereo not given)
EC50 hypnozoite quantity [1, 4]: > 10 µM | EC50 schizont net growth area [1, 4]: > 3.33 µM | CC20 hepatic nuclei [2, 4]: > 10 µM | maximum inhibition [3, 4]: 64.7%

CCOc1ccc2nc(C)cc(Nc3ccc(N(C)C)cc3)c2c1
EC50 hypnozoite quantity [1, 9]: > 50 µM | EC50 schizont net growth area [1, 9]: > 16.7 µM | CC20 hepatic nuclei [2, 9]: 16.2 µM | maximum inhibition [3, 9]: 84.6%

CC[C@H](NC(=O)[C@H](C)NC)C(=O)N1C[C@@H](O)C[C@H]1Cc1c(-c2[nH]c3cc(F)ccc3c2C[C@@H]2C[C@H](O)CN2C(=O)[C@H](CC)NC(=O)[C@H](C)NC)[nH]c2cc(F)ccc12
EC50 hypnozoite quantity [1, 8]: > 50 µM | CC20 hepatic nuclei [2, 8]: > 5.56 µM | maximum inhibition [3, 8]: 73%

CC[C@H]1CN2CCc3cc(OC)c(OC)cc3[C@@H]2C[C@@H]1C[C@H]1NCCc2cc(OC)c(OC)cc21
EC50 hypnozoite quantity [1, 8]: > 50 µM | EC50 schizont net growth area [1, 8]: 0.306 µM | CC20 hepatic nuclei [2, 8]: 2.42 µM | maximum inhibition [3, 8]: 107%

CCn1ncc2c(NC3CCOCC3)c(CNC(=O)c3ccnn3C)c(C)nc21
EC50 hypnozoite quantity [1, 6]: > 50 µM | EC50 schizont net growth area [1, 6]: 0.0266 µM | CC20 hepatic nuclei [2, 6]: > 50 µM | maximum inhibition [3, 6]: 103%

CN(C(=O)c1cc2c(-c3cncnc3)cccc2[nH]1)c1ccccc1
EC50 hypnozoite quantity [1, 5]: > 50 µM | EC50 schizont net growth area [1, 5]: 3.11 µM | CC20 hepatic nuclei [2, 5]: > 50 µM | maximum inhibition [3, 5]: 84.7%

CN(C)CCCNc1c2ccccc2nc2ccccc12
EC50 hypnozoite quantity [1, 8]: > 50 µM | EC50 schizont net growth area [1, 8]: 9.24 µM | CC20 hepatic nuclei [2, 8]: 5.73 µM | maximum inhibition [3, 8]: 108%

CN1CCN(C(c2cccs2)c2ccc3cccnc3c2O)CC1 (stereo not given)
EC50 hypnozoite quantity [1, 10]: > 10 µM | CC20 hepatic nuclei [2, 10]: > 10 µM | maximum inhibition [3, 10]: 60.5%

CN1CCN(c2ccc(Nc3c4ccccc4nc4ccccc34)cc2)CC1
EC50 hypnozoite quantity [1, 8]: > 50 µM | EC50 schizont net growth area [1, 8]: 6.04 µM | CC20 hepatic nuclei [2, 8]: 5.55 µM | maximum inhibition [3, 8]: 111%

CNC(=S)N/N=C(\C)c1ccccn1
EC50 hypnozoite quantity [1, 8]: 1.92 µM | EC50 schizont net growth area [1, 8]: 4.44 µM | CC20 hepatic nuclei [2, 8]: > 50 µM | maximum inhibition [3, 8]: 100%

COc1cc(-c2cc(-c3ccc(S(C)(=O)=O)cc3)cnc2N)ccc1O
EC50 hypnozoite quantity [1, 5]: > 50 µM | EC50 schizont net growth area [1, 5]: > 16.7 µM | CC20 hepatic nuclei [2, 5]: > 50 µM | maximum inhibition [3, 5]: 80.2%

COc1ccc(-c2cncc3ccc(C(=O)NCCCn4ccnc4)nc23)cc1
EC50 hypnozoite quantity [1, 5]: > 50 µM | EC50 schizont net growth area [1, 5]: 26 µM | CC20 hepatic nuclei [2, 5]: 44.8 µM | maximum inhibition [3, 5]: 70.8%

COc1ccc(C(=O)C(CCC(CNC(C)(C)C)C(=O)c2ccc(OC)cc2)CNC(C)(C)C)cc1 (stereo not given)
EC50 hypnozoite quantity [1, 6]: > 50 µM | EC50 schizont net growth area [1, 6]: 16.6 µM | CC20 hepatic nuclei [2, 6]: 40.8 µM | maximum inhibition [3, 6]: 88.7%

COc1ccc(-c2c(C)nn3c(N)c(C#N)cnc23)cc1OC
EC50 hypnozoite quantity [1, 9]: > 50 µM | EC50 schizont net growth area [1, 9]: 0.599 µM | CC20 hepatic nuclei [2, 9]: > 50 µM | maximum inhibition [3, 9]: 95.7%

COc1ccc(-c2cnc3ccc(N4CCCC4)nn23)cc1OC
EC50 hypnozoite quantity [1, 11]: > 50 µM | EC50 schizont net growth area [1, 11]: > 16.7 µM | CC20 hepatic nuclei [2, 11]: > 16.7 µM | maximum inhibition [3, 11]: 103%

COc1ccc(-c2nn(C(C)C)c3ncnc(N)c23)cc1OC
EC50 hypnozoite quantity [1, 5]: > 50 µM | EC50 schizont net growth area [1, 5]: 0.294 µM | CC20 hepatic nuclei [2, 5]: > 50 µM | maximum inhibition [3, 5]: 71.3%
